Reference: ChEMBL document CHEMBL1649078, “Novel antiviral C5-substituted pyrimidine acyclic nucleoside phosphonates selected as human thymidylate kinase substrates” (J Med Chem, 2011)
The source made the active and inactive calls. No rule for the calls is given here.

What was measured:
Homo sapiens [1] = organism: Homo sapiens; test: Displacement of MABA-CDP from human recombinant UCK by fluorescence competition assay
Homo sapiens [2] = organism: Homo sapiens; test: Activity at human recombinant UCK by Michaelis-Menten equation analysis
Human alphaherpesvirus 3 [3] = test: Antiviral activity against thymidine kinase-deficient VZV 07/1 infected in human HEL cells assessed as reduction of virus-induced cytopathogenicity after 5 days; type: functional, organism-based; conditions: Human alphaherpesvirus 3, 07/1, HEL, 120 h
Human alphaherpesvirus 3 [4] = test: Antiviral activity against VZV OKA expressing thymidine kinase infected in human HEL cells assessed as reduction of virus-induced cytopathogenicity after 5 days; type: functional, organism-based; conditions: Human alphaherpesvirus 3, OKA, 120 h
Human alphaherpesvirus 2 = test: Antiviral activity against HSV2 G infected in human HEL cells assessed as reduction of virus-induced cytopathogenicity after 7 days; type: functional, organism-based; conditions: Human alphaherpesvirus 2, strain G, 168 h
Human betaherpesvirus 5 = test: Antiviral activity against HCMV AD169/Davis infected in human HEL cells assessed as reduction of virus-induced cytopathogenicity after 7 days; type: functional, organism-based; conditions: Human betaherpesvirus 5, AD169/Davis, 168 h
[5] = Cytotoxicity against human HEL cells after 3 days; type: cell-based
Human alphaherpesvirus 1 [6] = test: Antiviral activity against HSV1 KOS infected in human HEL cells assessed as reduction of virus-induced cytopathogenicity after 7 days; type: functional, organism-based; conditions: Human alphaherpesvirus 1, KOS, 168 h
Human alphaherpesvirus 1 [7] = test: Antiviral activity against acyclovir-resistant thymidine kinase deficient HSV1 KOS infected in human HEL cells assessed as reduction of virus-induced cytopathogenicity after 7 days; type: functional, organism-based; conditions: Human alphaherpesvirus 1, KOS, 168 h

Row | Compound | Activity (Homo sapiens [1]) | Activity (Homo sapiens [2]) | other results
1 | CCOP(=O)(CC/C=C/Cn1cc(F)c(=O)n(C(=O)c2ccccc2)c1=O)OCC | inactive | inactive | –
2 | O=c1[nH]c(=O)n(C/C=C/CCP(=O)(O)O)cc1F | inactive | inactive | –
3 | COP(=O)(C/C=C/Cn1cc(F)c(=O)[nH]c1=O)OC | inactive | inactive | –
4 | CCOP(=O)(/C=C/Cn1ccc(=O)[nH]c1=O)OCC | inactive | inactive | –
5 | COP(=O)(C/C=C\Cn1cc(Cl)c(=O)n(C(=O)c2ccccc2)c1=O)OC | inactive | inactive | –
6 | CCOP(=O)(CC/C=C/Cn1cc(Br)c(=O)[nH]c1=O)OCC | inactive | inactive | –
7 | COP(=O)(C/C=C/Cn1cc(Cl)c(=O)[nH]c1=O)OC | inactive | inactive | –
8 | O=c1[nH]c(=O)n(C/C=C/P(=O)(O)O)cc1Br | inactive | inactive | –
9 | COP(=O)(C/C=C/Cn1cc(C)c(=O)n(C(=O)c2ccccc2)c1=O)OC | inactive | inactive | –
10 | CCOP(=O)(/C=C/Cn1cc(F)c(=O)[nH]c1=O)OCC | inactive | inactive | –
11 | O=c1ccn(C/C=C/CCP(=O)(O)O)c(=O)[nH]1 | inactive | inactive | –
12 | O=c1ccn(C/C=C/P(=O)(O)O)c(=O)[nH]1 | inactive | inactive | –
13 | O=c1[nH]c(=O)n(C/C=C/P(=O)(O)O)cc1Cl | inactive | inactive | –
14 | CCOP(=O)(CC/C=C/Cn1cc(Cl)c(=O)[nH]c1=O)OCC | inactive | inactive | –
15 | COP(=O)(C/C=C/Cn1cc(C)c(=O)[nH]c1=O)OC | inactive | inactive | –
16 | O=c1[nH]c(=O)n(C/C=C/P(=O)(O)O)cc1F | inactive | inactive | –
17 | COP(=O)(C/C=C/Cn1ccc(=O)[nH]c1=O)OC | inactive | inactive | –
18 | COP(=O)(C/C=C/Cn1cc(Br)c(=O)n(C(=O)c2ccccc2)c1=O)OC | inactive | inactive | –
19 | COP(=O)(C/C=C/Cn1cc(Cl)c(=O)n(C(=O)c2ccccc2)c1=O)OC | inactive | inactive | –
20 | CCOP(=O)(/C=C/Cn1cc(Br)c(=O)[nH]c1=O)OCC | inactive | inactive | –
21 | O=c1[nH]c(=O)n(C/C=C/CP(=O)(O)O)cc1Br | inactive | inactive | –
22 | COP(=O)(C/C=C/Cn1cc(F)c(=O)n(C(=O)c2ccccc2)c1=O)OC | inactive | inactive | –
23 | CCOP(=O)(CC/C=C/Cn1cc(C)c(=O)n(C(=O)c2ccccc2)c1=O)OCC | inactive | inactive | –
24 | COP(=O)(C/C=C/Cn1cc(Br)c(=O)[nH]c1=O)OC | inactive | inactive | –
25 | COP(=O)(C/C=C\Cn1cc(C)c(=O)n(C(=O)c2ccccc2)c1=O)OC | inactive | inactive | –
26 | O=c1[nH]c(=O)n(C/C=C/CP(=O)(O)O)cc1F | inactive | inactive | –

Row | Compound | Activity (Homo sapiens [1]) | Activity (Homo sapiens [2]) | other results
27 | CCOP(=O)(CC/C=C/Cn1ccc(=O)n(C(=O)c2ccccc2)c1=O)OCC | inactive | inactive | –
28 | COP(=O)(C/C=C\Cn1cc(Br)c(=O)n(C(=O)c2ccccc2)c1=O)OC | inactive | inactive | –
29 | CCOP(=O)(CC/C=C/Cn1cc(Cl)c(=O)n(C(=O)c2ccccc2)c1=O)OCC | inactive | inactive | –
30 | O=c1[nH]c(=O)n([C@H]2C[C@H](O)[C@@H](CO)O2)cc1/C=C/Br [BRIVUDINE] | – | – | EC50 (Human alphaherpesvirus 3 [3]): > 100 µM; EC50 (Human alphaherpesvirus 3 [4]): 0.012 µM; EC50 (Human alphaherpesvirus 2): 30 µM; EC50 (Human betaherpesvirus 5): > 250 µM; CC50 at 72 h [5]: > 250 µM; MCC at 72 h [5]: > 250 µM
31 | CCOP(=O)(CC/C=C/Cn1ccc(=O)[nH]c1=O)OCC | inactive | inactive | –
32 | CCOP(=O)(/C=C/Cn1cc(C)c(=O)[nH]c1=O)OCC | inactive | inactive | –
33 | COP(=O)(C/C=C\Cn1cc(Cl)c(=O)[nH]c1=O)OC | inactive | inactive | –
34 | COP(=O)(C/C=C\Cn1cc(F)c(=O)n(C(=O)c2ccccc2)c1=O)OC | inactive | inactive | –
35 | COP(=O)(C/C=C\Cn1ccc(=O)n(C(=O)c2ccccc2)c1=O)OC | inactive | inactive | –
36 | CCOP(=O)(CC/C=C/Cn1cc(C)c(=O)[nH]c1=O)OCC | inactive | inactive | –
37 | Nc1nc2c(ncn2COC(CO)CO)c(=O)[nH]1 [GANCICLOVIR] | – | – | EC50 (Human alphaherpesvirus 2): 0.05 µM; EC50 (Human alphaherpesvirus 1 [6]): 0.08 µM; EC50 (Human betaherpesvirus 5): 5.2 µM; CC50 at 72 h [5]: 164 µM; MCC at 72 h [5]: > 100 µM; EC50 (Human alphaherpesvirus 1 [7]): 3 µM
38 | Cc1cn(C/C=C/CP(=O)(OCOC(=O)C(C)(C)C)OCOC(=O)C(C)(C)C)c(=O)[nH]c1=O | inactive | inactive | EC50 (Human alphaherpesvirus 3 [3]): 0.19 µM; EC50 (Human alphaherpesvirus 3 [4]): 0.41 µM; EC50 (Human alphaherpesvirus 2): 6.1 µM; EC50 (Human alphaherpesvirus 1 [6]): 3.1 µM; EC50 (Human betaherpesvirus 5): > 40 µM; CC50 at 72 h [5]: 35 µM; MCC at 72 h [5]: ≥ 200 µM; EC50 (Human alphaherpesvirus 1 [7]): 9.2 µM
39 | CC(C)(C)C(=O)OCOP(=O)(C/C=C\Cn1cc(Br)c(=O)[nH]c1=O)OCOC(=O)C(C)(C)C | inactive | inactive | EC50 (Human alphaherpesvirus 3 [3]): 110 µM; EC50 (Human alphaherpesvirus 3 [4]): 97 µM; EC50 (Human alphaherpesvirus 2): 45 µM; EC50 (Human alphaherpesvirus 1 [6]): > 200 µM; EC50 (Human betaherpesvirus 5): > 200 µM; CC50 at 72 h [5]: 70 µM; MCC at 72 h [5]: > 200 µM; EC50 (Human alphaherpesvirus 1 [7]): > 200 µM
40 | O=c1[nH]c(=O)n(C/C=C/CCP(=O)(O)O)cc1Cl | inactive | inactive | –
41 | O=c1ccn(C/C=C/CP(=O)(O)O)c(=O)[nH]1 | inactive | inactive | –
42 | COP(=O)(C/C=C/Cn1ccc(=O)n(C(=O)c2ccccc2)c1=O)OC | inactive | inactive | –
43 | CCOP(=O)(/C=C/Cn1cc(Cl)c(=O)[nH]c1=O)OCC | inactive | inactive | –
44 | CCOP(=O)(CC/C=C/Cn1cc(F)c(=O)[nH]c1=O)OCC | inactive | inactive | –
45 | CCOP(=O)(CC/C=C/Cn1cc(Br)c(=O)n(C(=O)c2ccccc2)c1=O)OCC | inactive | inactive | –
46 | Cc1cn(C/C=C/P(=O)(O)O)c(=O)[nH]c1=O | inactive | inactive | –
47 | COP(=O)(C/C=C\Cn1cc(F)c(=O)[nH]c1=O)OC | inactive | inactive | –
48 | O=c1[nH]c(=O)n(C/C=C/CCP(=O)(O)O)cc1Br | inactive | inactive | –
49 | COP(=O)(C/C=C\Cn1ccc(=O)[nH]c1=O)OC | inactive | inactive | –
50 | COP(=O)(C/C=C\Cn1cc(Br)c(=O)[nH]c1=O)OC | inactive | inactive | –
51 | Cc1cn(C/C=C/CCP(=O)(O)O)c(=O)[nH]c1=O | inactive | inactive | –
52 | COP(=O)(C/C=C\Cn1cc(C)c(=O)[nH]c1=O)OC | inactive | inactive | –
